# Laboratory results published in PMC8421360, “Spectroscopic glimpses of the transition state of ATP hydrolysis trapped in a bacterial DnaB helicase” (Nature Communications, 2021).
# Target: T1, HpDnaB (Helicobacter pylori, UniProt O25916)
# T1 construct: gene dnaB; recombinant in E. coli BL21 Star (DE3), pACYC-duet1 (NdeI/XhoI); monomer 59 kDa; closed hexamer proposed with DNA, dodecamer in crystal 4ZC0
# T1 sequence (O25916 1-488): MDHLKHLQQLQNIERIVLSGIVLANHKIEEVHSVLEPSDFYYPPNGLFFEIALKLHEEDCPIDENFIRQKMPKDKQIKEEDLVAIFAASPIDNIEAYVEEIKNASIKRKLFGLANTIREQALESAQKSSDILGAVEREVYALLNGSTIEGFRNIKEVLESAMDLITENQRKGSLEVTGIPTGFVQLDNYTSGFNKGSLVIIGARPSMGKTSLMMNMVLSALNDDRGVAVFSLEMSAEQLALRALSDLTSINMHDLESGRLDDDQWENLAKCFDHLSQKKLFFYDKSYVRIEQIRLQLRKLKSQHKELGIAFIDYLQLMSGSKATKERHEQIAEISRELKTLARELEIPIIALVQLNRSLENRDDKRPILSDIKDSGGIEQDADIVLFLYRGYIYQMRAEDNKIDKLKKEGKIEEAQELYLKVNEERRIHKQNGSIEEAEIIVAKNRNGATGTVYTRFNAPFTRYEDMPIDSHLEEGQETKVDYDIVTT
# Test: proton-detected […],1H solid-state NMR (hPH, […] kHz MAS); Mn2+ EDNMR/ENDOR
# Type: binding
# Details: as ADP:AlF4- complex; Mg2+ and (dT)20 for hPH NMR, Mn2+ without DNA for EPR; pH 7.5; Walker A nucleotide site (S206, G208, K209, T210, S211)
smiles,measurement,value
Nc1ncnc2c1ncn2[C@@H]1O[C@H](COP(=O)(O)OP(=O)(O)O)[C@@H](O)[C@H]1O [ADP],"proton-detected 31P,1H solid-state NMR (hPH, 105 kHz MAS); Mn2+ EDNMR/ENDOR","spatial correlations between Pβ of ADP and S206, G208, K209 and T210"
